Here are results for ten compounds from patent US20160022636A1, “PHYSIOLOGICAL LIGANDS FOR GPR139” (JANSSEN PHARMACEUTICA NV, priority 2013, published 2016).

Several values for one entry are separate records, joined by “and”; a condition that tells them apart may be missing. Equal values may be shown once.

Assay [1] addresses T1, GPR139 (Homo sapiens, UniProt Q6DWJ6).
T1 sequence (Q6DWJ6 1-353): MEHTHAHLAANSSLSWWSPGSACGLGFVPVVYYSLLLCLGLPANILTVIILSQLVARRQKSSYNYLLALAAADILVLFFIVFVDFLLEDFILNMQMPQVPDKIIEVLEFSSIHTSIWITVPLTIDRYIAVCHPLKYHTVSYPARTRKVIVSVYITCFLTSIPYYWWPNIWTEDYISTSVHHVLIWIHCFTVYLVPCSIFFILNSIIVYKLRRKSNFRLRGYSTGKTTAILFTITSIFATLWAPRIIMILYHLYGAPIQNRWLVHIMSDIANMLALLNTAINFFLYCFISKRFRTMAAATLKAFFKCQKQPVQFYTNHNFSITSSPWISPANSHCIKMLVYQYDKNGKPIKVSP
The assay is described as follows: calcium mobilization assay (FLIPR), GPR139 transiently expressed in HEK293 cells. The settings on record: for potency in calcium mobilization compared with L-Trp and L-Phe (in words): similar to GTPγS binding studies; for stimulation of calcium mobilization (in words): HEK293 cells transiently expressing human GPR139, FIG. 3. Further details: expressed in transfected cells; host or cells: HEK293. It is filed as cell-based. An excerpt:
For these experiments human GPR139 was transiently expressed in HEK293 cells and calcium mobilization was stimulated using L-Trp, L-Phe or their derivatives.

Assay [2] addresses T1, GPR139. Put plainly: GTPγS binding dose response, COS7 membranes co-transfected with human GPR139 and GO2Q. It is filed as biochemical. Further details: expressed in transfected cells; host or cells: COS7. Particulars: human GPR139, FIG. 2 A and B. The text has this:
(§1) FIG. 2: Tryptophan, phenylalanine, and their derivatives activate GPR139. Human (A and B) or mouse (C and D) GPR139 were co-transfected with chimeric G-protein GO2Q into COS7 cells. Cell membranes from transfected cells were used in GTPγS binding studies using various ligands at different concentrations to stimulate GPR139. Membranes from COS7 cells transfected by GO2Q were used as the controls (E and F).

Assay [3] deals with T2, mouse GPR139 (Mus musculus, UniProt Q80UC8).
T2 construct: expressed in transfected cells; host or cells: COS7
T2 sequence (Q80UC8 1-345): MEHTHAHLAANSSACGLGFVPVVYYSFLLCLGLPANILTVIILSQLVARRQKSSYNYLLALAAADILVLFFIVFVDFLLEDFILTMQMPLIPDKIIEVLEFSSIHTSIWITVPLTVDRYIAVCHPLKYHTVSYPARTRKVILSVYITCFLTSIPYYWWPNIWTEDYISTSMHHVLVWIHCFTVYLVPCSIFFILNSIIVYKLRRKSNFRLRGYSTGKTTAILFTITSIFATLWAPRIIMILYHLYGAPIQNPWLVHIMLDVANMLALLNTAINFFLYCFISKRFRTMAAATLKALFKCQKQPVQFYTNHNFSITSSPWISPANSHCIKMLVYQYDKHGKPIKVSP
Put plainly: GTPγS binding dose response, COS7 membranes co-transfected with mouse GPR139 and GO2Q. Particulars: mouse GPR139, FIG. 2 C and D. It is filed as biochemical.
Text: as §1

In assay [4] the target is T1, GPR139. The assay is described as follows: GTPγS binding assay, membranes from COS7 cells co-expressing GPR139 and GO2Q, single concentration screen. The assay is classed as biochemical. Details: expressed in transfected cells; host or cells: COS7. Particulars: for activation of GPR139 in GTPγS binding assay (in words): 1 mM; for Activation levels of GPR139 (GTPγS binding signal), GPR139-GO2Q: 1 mM final concentration, single wells of triplicate, COS7 membranes co-expressing GPR139 and GO2Q. The method, then: (§2) In order identify the ligands for GPR139 two improvements in the detection assay were made to allow for the ligands to be detected. First, we chose to use a GTPγS binding assay instead of using live cultured cells. The GTPγS binding assay is a cell free system that uses the cell membrane of the cell(s) of interest rather than the live cell(s). One advantage of this assay is that potential ligands present in the cell culture media are washed away when the cell membrane is prepared. This reduces the basal level of signal and increase the chance of detecting receptor ligands when assessing compounds that activate the receptor. Second, a GO2Q chimeric G-protein was created to be co-expressed with GPR139 in order to increase the signal-to-noise ratio in the GTPγS binding assay. Historically, the Gi, Go coupled GPCRs offer much greater signal-to-noise ratio in GTPγS binding studies. For Gs and Gq coupled GPCRs, although ligand-stimulated specific signals can be detected in a GTPγS binding assay, the signal-to-noise ratios are often very small. To address this a chimeric GO2-Gq chimeric G-protein, GO2Q, with the N-terminus from Go2 protein and the C-terminus from Gq protein.
(§3) To test for compounds that activate GPR139, different amino acids and their derivatives (Table 2) were tested as ligands in the GTPγS binding assay using cell membranes from COS7 cells co-expressing GPR139 and GO2Q. Cell membrane from COS7 cells expressing GO2Q alone or co-expressing other GPCRs were also tested in GTPγS binding assay in parallel as controls. Each compound was tested in triplicate.

In assay [5] the test system is GO2Q alone. The assay is described as follows: GTPγS binding assay, control membranes from COS7 cells expressing GO2Q alone (Ct-GO2Q). The settings on record: for Activation levels (GTPγS binding signal), Ct-GO2Q: 1 mM final concentration, single wells of triplicate, COS7 membranes with GO2Q alone (control panel); for activation of membranes from cells expressing GO2Q alone (in words): 1 mM, same assay. It is filed as biochemical.
Text: Human (A and B) or mouse (C and D) GPR139 were co-transfected with chimeric G-protein GO2Q into COS7 cells. Cell membranes from transfected cells were used in GTPγS binding studies using various ligands at different concentrations to stimulate GPR139. Membranes from COS7 cells transfected by GO2Q were used as the controls (E and F).
as §2, §3

Assay [6] relates to GPCR134. Put plainly: GTPγS binding assay, membranes co-expressing GO2Q and GPCR134. It is filed as biochemical. The settings on record: data not shown. The method, then:
as §3

For assay [7], the target named is T3, GPR52 (Homo sapiens, UniProt Q9Y2T5).
T3 construct: expressed in transfected cells; host or cells: COS7
Put plainly: GTPγS binding assay, membranes co-expressing GO2Q and GPR52. It is filed as biochemical. Particulars: data not shown. The method, then: as §3

The test system of assay [8] is GPCR132. The assay is described as follows: GTPγS binding assay, membranes co-expressing GO2Q and GPCR132. The assay is classed as biochemical. The settings on record: data not shown. The method, then:
as §3

Assay [9] has as its target T4, GPR21 (Homo sapiens, UniProt Q99679).
T4 construct: expressed in transfected cells; host or cells: COS7
Put plainly: GTPγS binding assay, membranes co-expressing GO2Q and GPR21. It is filed as biochemical. The settings on record: data not shown. The method, then:
as §3

Assay [10] deals with GPCR119. The assay is described as follows: GTPγS binding assay, membranes co-expressing GO2Q and GPCR119. It is filed as biochemical. Particulars: data not shown. The method, then: as §3
The target of assay [11] is T5, GPR182 (Homo sapiens, UniProt O15218).
T5 construct: expressed in transfected cells; host or cells: COS7
The assay is described as follows: GTPγS binding assay, membranes co-expressing GO2Q and GPR182. It is filed as biochemical. Particulars: data not shown. The method, then: as §3

T5 sequence (O15218 whole entry, species assumed): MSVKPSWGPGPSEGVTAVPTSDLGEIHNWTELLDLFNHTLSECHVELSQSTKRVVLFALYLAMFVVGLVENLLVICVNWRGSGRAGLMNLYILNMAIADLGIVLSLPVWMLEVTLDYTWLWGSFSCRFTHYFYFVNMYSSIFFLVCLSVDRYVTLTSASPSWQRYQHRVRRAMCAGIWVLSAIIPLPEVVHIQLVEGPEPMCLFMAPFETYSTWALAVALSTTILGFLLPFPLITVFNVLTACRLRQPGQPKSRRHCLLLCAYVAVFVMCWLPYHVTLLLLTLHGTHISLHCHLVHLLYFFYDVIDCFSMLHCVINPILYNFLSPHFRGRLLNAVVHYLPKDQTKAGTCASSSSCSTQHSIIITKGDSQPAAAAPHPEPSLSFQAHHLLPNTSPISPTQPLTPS
T4 sequence (Q99679 whole entry, species assumed): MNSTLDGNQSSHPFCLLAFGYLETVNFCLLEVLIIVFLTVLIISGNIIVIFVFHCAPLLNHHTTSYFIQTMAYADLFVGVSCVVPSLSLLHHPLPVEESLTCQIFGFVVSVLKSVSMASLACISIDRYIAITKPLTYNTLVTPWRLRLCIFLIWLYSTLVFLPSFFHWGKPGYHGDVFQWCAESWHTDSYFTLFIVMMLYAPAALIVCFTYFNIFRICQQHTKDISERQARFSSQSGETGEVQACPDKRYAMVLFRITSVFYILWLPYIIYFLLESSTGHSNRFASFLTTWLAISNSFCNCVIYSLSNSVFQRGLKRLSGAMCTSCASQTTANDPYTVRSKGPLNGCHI
T3 sequence (Q9Y2T5 whole entry, species assumed): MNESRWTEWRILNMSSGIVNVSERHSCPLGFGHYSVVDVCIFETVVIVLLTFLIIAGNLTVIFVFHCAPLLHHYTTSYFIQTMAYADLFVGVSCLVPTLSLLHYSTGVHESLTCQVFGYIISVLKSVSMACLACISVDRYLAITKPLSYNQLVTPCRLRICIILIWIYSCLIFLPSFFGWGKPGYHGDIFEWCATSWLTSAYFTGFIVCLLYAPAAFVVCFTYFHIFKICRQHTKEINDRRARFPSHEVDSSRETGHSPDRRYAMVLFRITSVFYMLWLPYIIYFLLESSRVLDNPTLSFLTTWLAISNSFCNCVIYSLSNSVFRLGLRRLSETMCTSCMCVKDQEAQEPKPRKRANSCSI

As for `Cn1cc(C[C@@H](N)C(=O)O)c2ccccc21` [1-methyl-D-Trp], in assay [1], the “potency in calcium mobilization compared with L-Trp and L-Phe (in words)” value is listed as “higher potencies”. Also, the “dose response activation of GPR139 (in words)” value (shortened to “dose response activation”) in assay [2] and in assay [3] was “specifically activate GPR139 in a dose-responsive manner” each time.
`Cn1cc(C[C@H](N)C(=O)O)c2ccccc21` [1-methyl-L-Trp]: in assay [1], the “potency in calcium mobilization compared with L-Trp and L-Phe (in words)” value is recorded as “higher potencies”. Also, the “dose response activation” value in [2] and in assay [3] was “specifically activate GPR139 in a dose-responsive manner” in each case.
With `CC(N)Cc1ccccc1` (centres unmarked) [Amphetamine, amphetamine], in [4], the “activation of GPR139 in GTPγS binding assay (in words)” value was “activated GPR139”; the “Activation levels of GPR139 (GTPγS binding signal), GPR139-GO2Q” value (“Activation levels of GPR139” below) was 7242 and 6744 and 7263. For the same compound, the “dose response activation” value in assay [2] is “specifically activate GPR139 in a dose-responsive manner”. Also, the “dose response activation” value in assay [3] was “specifically activate GPR139 in a dose-responsive manner”. Besides, the “Activation levels (GTPγS binding signal), Ct-GO2Q” value (“Activation levels … Ct-GO2Q” below) in assay [5] was 2331 and 2132 and 2001.
On to `N[C@H](Cc1ccccc1)C(=O)O` [D-Phe, D-phenylalanine], for which the “dose response activation” value in assay [2] and in assay [3] was “specifically activate GPR139 in a dose-responsive manner” each time.
With `N[C@H](Cc1c[nH]c2ccccc12)C(=O)O` [D-Trp, D-tryptophan], the “dose response activation” value in [2] and in assay [3] was “specifically activate GPR139 in a dose-responsive manner” each time.
Consider `N[C@@H](Cc1ccccc1)C(=O)O` [L-Phe, L-phenylalanine], for which the “activation of membranes co-expressing GO2Q and GPCR134 (in words)” value in assay [6] is “did not activate”. Also, in assay [4], the “activation of GPR139 in GTPγS binding assay (in words)” value is recorded as “able to activate GPR139”; the “Activation levels of GPR139” value was 8697 and 6925 and 8417. Also, the “activation of membranes co-expressing GO2Q and GPR52 (in words)” value in assay [7] is recorded as “did not activate”. In addition, the “stimulation of calcium mobilization (in words)” value in assay [1] was “specifically stimulate calcium mobilization”. In addition, in assay [8], the “activation of membranes co-expressing GO2Q and GPCR132 (in words)” value is listed as “did not activate”. Also, the “dose response activation” value in assay [2] is reported as “specifically activate GPR139 in a dose-responsive manner”. The “activation of membranes co-expressing GO2Q and GPR21 (in words)” value in assay [9] is on record as “did not activate”. In addition, the “dose response activation” value in [3] is “specifically activate GPR139 in a dose-responsive manner”. Further, in [10], the “activation of membranes co-expressing GO2Q and GPCR119 (in words)” value is “did not activate”. Moreover, in assay [11], the “activation of membranes co-expressing GO2Q and GPR182 (in words)” value is listed as “did not activate”. In assay [5], the “Activation levels … Ct-GO2Q” value is 2190 and 2215 and 2345; the “activation of membranes from cells expressing GO2Q alone (in words)” value was “did not activate”.
In the case of `N[C@@H](Cc1c[nH]c2ccccc12)C(=O)O` [L-Trp, L-tryptophan], the “activation of membranes co-expressing GO2Q and GPCR134 (in words)” value in assay [6] is recorded as “did not activate”. Further, in assay [4], the “activation of GPR139 in GTPγS binding assay (in words)” value is on record as “able to activate GPR139”; the “Activation levels of GPR139” value was 8141 and 9121 and 9149. For the same compound, the “activation of membranes co-expressing GO2Q and GPR52 (in words)” value in assay [7] is on record as “did not activate”. The “stimulation of calcium mobilization (in words)” value in assay [1] was “specifically stimulate calcium mobilization”. Besides, the “activation of membranes co-expressing GO2Q and GPCR132 (in words)” value in assay [8] is “did not activate”. Besides, in assay [2], the “dose response activation” value was “specifically activate GPR139 in a dose-responsive manner”. Moreover, the “activation of membranes co-expressing GO2Q and GPR21 (in words)” value in assay [9] was “did not activate”. The “dose response activation” value in assay [3] was “specifically activate GPR139 in a dose-responsive manner”. In addition, the “activation of membranes co-expressing GO2Q and GPCR119 (in words)” value in assay [10] is recorded as “did not activate”. In addition, in assay [11], the “activation of membranes co-expressing GO2Q and GPR182 (in words)” value is given as “did not activate”. In assay [5], the “Activation levels … Ct-GO2Q” value is 2172 and 2234 and 2272; the “activation of membranes from cells expressing GO2Q alone (in words)” value is “did not activate”.
As to `NCCc1c[nH]c2ccccc12` [Tryptamine, tryptamine], in [4], the “activation of GPR139 in GTPγS binding assay (in words)” value is listed as “activated GPR139”; the “Activation levels of GPR139” value is 6757 and 7686 and 7742. For the same compound, the “dose response activation” value in assay [2] is given as “specifically activate GPR139 in a dose-responsive manner”. Further, the “dose response activation” value in [3] is reported as “specifically activate GPR139 in a dose-responsive manner”. In assay [5], the “Activation levels … Ct-GO2Q” value is 2025 and 2048 and 2088.
As to `CC(C)[C@H](N)C(=O)O` [Val], the “Activation levels of GPR139” value in assay [4] is 2632 and 2689 and 2533. For the same compound, the “Activation levels … Ct-GO2Q” value in assay [5] was 2072 and 2083 and 1977.
For `NCCc1ccccc1` [β-phenylethylamine], in [4], the “activation of GPR139 in GTPγS binding assay (in words)” value is on record as “activated GPR139”. In addition, the “Activation levels of GPR139” value in [4] (listed as b-phenylethylamine) was 6705 and 7099 and 6634. The “dose response activation” value in [2] and in assay [3] was “specifically activate GPR139 in a dose-responsive manner” each time. For the same compound, the “Activation levels … Ct-GO2Q” value in [5] (listed as b-phenylethylamine) was 2334 and 2065 and 2024.
